# Results from PMC7329864, “Role of water in cyclooxygenase catalysis and design of anti-inflammatory agents targeting two sites of the enzyme” (Scientific Reports, 2020).
# Assays:
# [1] = molecular target: T1, COX-1 (Ovis aries, UniProt P05979); test: COX inhibitory enzyme immunoassay (COX-1); assay type: biochemical
# T1 construct: purchased Cayman Chemical Co. item no; 560131
# T1 sequence (P05979 25-600): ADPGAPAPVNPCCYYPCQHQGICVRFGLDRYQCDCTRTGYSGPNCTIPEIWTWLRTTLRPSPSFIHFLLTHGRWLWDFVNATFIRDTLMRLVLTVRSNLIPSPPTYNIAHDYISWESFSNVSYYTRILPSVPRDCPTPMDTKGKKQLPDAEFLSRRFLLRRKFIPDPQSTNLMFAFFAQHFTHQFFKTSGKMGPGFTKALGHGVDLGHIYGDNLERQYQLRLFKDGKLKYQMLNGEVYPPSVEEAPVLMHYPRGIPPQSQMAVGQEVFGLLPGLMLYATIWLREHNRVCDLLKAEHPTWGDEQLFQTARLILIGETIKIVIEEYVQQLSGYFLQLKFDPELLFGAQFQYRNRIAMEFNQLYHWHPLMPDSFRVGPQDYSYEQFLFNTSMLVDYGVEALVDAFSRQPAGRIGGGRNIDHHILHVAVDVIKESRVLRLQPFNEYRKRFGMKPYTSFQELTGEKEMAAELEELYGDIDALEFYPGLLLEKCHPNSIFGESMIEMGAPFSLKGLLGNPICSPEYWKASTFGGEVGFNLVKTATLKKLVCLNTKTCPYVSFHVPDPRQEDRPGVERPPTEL
# Method: All the compounds of Fig. 9 were screened for COX-1/2 inhibitory activity in triplicate at 10^–4–10^–8 M concentration by performing enzyme immunoassays. The activity of the compounds was quantified in terms of amount of prostaglandins produced by the enzymes in the presence of different concentrations of the compound.
# For studying the COX-1, COX-2 inhibitory activities of the compounds, various reagents were prepared as per the protocol of the assays. The compounds were screened in triplicate at 10^–4–10^–8 M concentration using the procedure as described in the previous report.
# [2] = tested on: Swiss albino mice; test: Formalin induced pain (flinchings), analgesic activity and mechanistic pretreatments; assay type: in vivo
# Method: (§1) Since it is known to produce biphasic pain response—the neurogenic pain and the inflammatory phase, 2% formalin injection was given in the right hind paw of the animals (20 µL) and the response was quantified by counting the number of flinching after 30 min of the compound 1 treatment. The inflammatory phase has been reported in the current investigation since the cyclooxygenase inhibitors are known to ameliorate the latter phase. The involvement of cyclooxygenase and lipooxygenase pathways was studied by pretreatment with substance P and nitric oxide pathway was studied by pretreatment with L-arginine and L-NAME as previously described. Anti-inflammatory activity was examined by using carageenan induced paw edema as per the previous report.
# (§2) Swiss albino mice of either sex (25–35 g) were used for determining the analgesic and anti-inflammatory activity of the compounds. The animals were maintained at 22 ± 2 °C under 12 h light/12 h dark cycle with free supply of food and water. The study was approved by the IAEC of Guru Nanak Dev University, Amritsar, Punjab, India. A total of six groups of animals with 5 animals in each group were used. The experimental procedure as described in our previous report[52],[57] was used for studying the analgesic and anti-inflammatory activity of the compounds. All the treatments were given intraperitoneally (i.p.).
# Mechanistic studies. Three groups of mice with 5 animals in each group were taken for exploring the inhibition of COX and LOX and modulation of nitric oxide pathway. For COX and LOX pathways, the animals were pretreated with substance P, 30 min before administering 1. For nitric oxide pathway, animals were pretreated with nitric oxide precursor, L-arginine and NOS inhibitor, L-NAME, 30 min before administering 1. The details of the protocols are described in previous reports[52],[57].
# [3] = tested on: Swiss albino mice; test: Carageenan induced paw edema, anti-inflammatory activity; assay type: in vivo
# Method: as §1, §2
structure (smiles),measurement,setting,value
O=C1NC(=O)C(=Cc2cn(CCCCCCn3c4ccccc4c(=O)c4ccccc43)c3ccccc23)C(=O)N1 [Compound 1],IC50,[1],60 µM
same,reversal of formalin induced analgesia,[2],90%
same,number of flinchings in neurogenic and inflammatory phase of formalin induced pain,"[2]; 10 mg kg^−1, i.p., 2% formalin 30 min after treatment, comparable to indomethacin",significant decrease
same,modulation (attenuation) of analgesic effect by L-NAME pretreatment,[2]; L-NAME (NOS inhibitor) 30 min before compound,did not
same,modulation of analgesic effect by L-arginine pretreatment,[2]; L-arginine (NO precursor) 30 min before compound,attenuated the analgesic effect of 1 partially
same,modulation of analgesic effect by Substance P pretreatment,"[2]; Substance P 30 min before compound, complete reversal not evident",attenuated the analgesic effect
same,reversal of carageenan induced inflammation,[3],90%
same,paw volume after carageenan injection,"[3]; i.p., comparable to indomethacin",significant decrease
